From ChEMBL document CHEMBL2046436, “Synthesis and structure-activity relationships of benzophenone-bearing diketopiperazine-type anti-microtubule agents” (Bioorg Med Chem, 2012)
Activity calls are given as the source filed them. No cut-off for these calls is given here.

Experiments:
A549 = assay: Cytotoxicity against human A549 cells after 48 hrs by WST-8 assay; type: functional, cell-based; settings: A549, 48 h
HeLa [1] = assay: Cytotoxicity against human HeLa cells after 48 hrs by WST-8 assay; type: functional, cell-based
HT-29 [2] = assay: Cytotoxicity against human HT-29 cells after 48 hrs by Resazurin assay; settings: HT-29, 48 h
[3] = Inhibition of bovine brain microtubule polymerization by spectrophotometric analysis; design: species or system Bos taurus
HeLa [4] = assay: Antimitotic activity in human HeLa cells assessed as microtubule network damage at interphase at 1 nM after 6 hrs by DAPI staining-based immunofluorescence analysis; type: functional, cell-based
HeLa [5] = assay: Antimitotic activity in human HeLa cells assessed as change in dipolar spindle formation in metaphase at 1 nM after 6 hrs by DAPI staining-based immunofluorescence analysis; type: functional, cell-based
HeLa [6] = assay: Antimitotic activity in human HeLa cells assessed as disruption of interphase microtubule network at 3 nM after 6 hrs by DAPI staining-based immunofluorescence analysis; type: functional, cell-based
HeLa [7] = assay: Antimitotic activity in human HeLa cells assessed as multipolar spindle formation at 3 nM after 6 hrs by DAPI staining-based immunofluorescence analysis; type: functional, cell-based
HeLa [8] = assay: Antimitotic activity in human HeLa cells assessed as disruption of interphase microtubule network at 10 nM after 6 hrs by DAPI staining-based immunofluorescence analysis; type: functional, cell-based
HT-29 [9] = assay: Cytotoxicity against human HT-29 cells after 48 hrs by resazurin assay; type: functional, cell-based; settings: HT-29, 48 h
tubulin (Sus scrofa) = assay: Binding affinity to porcine tubulin by spectrophotometric analysis

With `COc1cc2c(c(OC)c1OC)-c1ccc(OC)c(=O)cc1[C@@H](NC(C)=O)CC2` [COLCHICINE] as the compound, how does the IC50 (A549) read?
The IC50 was 50.6 nM.

What about the IC50 (HeLa [1]) of the same compound?
Its IC50 is 20.2 nM.

What about the IC50 (HT-29 [2]) of the same compound?
Its IC50 is 9.3 nM.

For `CC(C)(C)c1[nH]cnc1/C=c1\[nH]c(=O)/c(=C/c2cccc(C(=O)c3ccccc3F)c2)[nH]c1=O`, which IC50 (HT-29 [2]) is on record?
The IC50 was 3 nM.

What does the source list for `COc1ccc(/C=C\c2cc(OC)c(OC)c(OC)c2)cc1O` [COMBRETASTATIN A4]?
IC50 [3]: 550 nM; IC50 (A549): 5.3 nM; IC50 (HeLa [1]): 2.2 nM; Activity (HeLa [4]): inactive; Activity (HeLa [5]): inactive; Activity (HeLa [6]): inactive; Activity (HeLa [7]): Active; Activity (HeLa [8]): Active; IC50 (HT-29 [9]): 12 µM

With `CC(C)(C)c1[nH]cnc1/C=c1\[nH]c(=O)/c(=C/c2cccc(C(=O)c3ccc(Br)cc3)c2)[nH]c1=O` as the compound, how does the IC50 (HT-29 [2]) read?
Its IC50 is 4 nM.

Which IC50 (HT-29 [2]) does the source give for `CC(C)(C)c1[nH]cnc1/C=c1\[nH]c(=O)/c(=C/c2cccc(C(=O)c3cccc(Cl)c3)c2)[nH]c1=O` here?
The IC50 was 2 nM.

For `COc1cc(C(=O)c2cccc(/C=c3\[nH]c(=O)/c(=C/c4nc[nH]c4C(C)(C)C)[nH]c3=O)c2)cc(OC)c1OC`, which IC50 (HT-29 [2]) is on record?
Its IC50 is 2500 nM.

With `COc1ccccc1C(=O)c1cccc(/C=c2\[nH]c(=O)/c(=C/c3nc[nH]c3C(C)(C)C)[nH]c2=O)c1` as the compound, how does the IC50 (HT-29 [2]) read?
The IC50 was 360 nM.

With `COc1ccc(C(=O)c2cccc(/C=c3\[nH]c(=O)/c(=C/c4nc[nH]c4C(C)(C)C)[nH]c3=O)c2)cc1` as the compound, how does the IC50 (HT-29 [2]) read?
The IC50 was 3.8 nM.

For `COc1cccc(C(=O)c2cccc(/C=c3\[nH]c(=O)/c(=C/c4nc[nH]c4C(C)(C)C)[nH]c3=O)c2)c1OC`, which IC50 (HT-29 [2]) is on record?
The IC50 was 955 nM.

For `COc1ccc(C(=O)c2cccc(/C=c3\[nH]c(=O)/c(=C/c4nc[nH]c4C(C)(C)C)[nH]c3=O)c2)c(OC)c1`, which IC50 (HT-29 [2]) is on record?
Its IC50 is 1800 nM.

With `CC(C)(C)c1[nH]cnc1/C=c1\[nH]c(=O)/c(=C/c2cccc(C(=O)c3ccccc3Cl)c2)[nH]c1=O` as the compound, how does the IC50 (HT-29 [2]) read?
The IC50 was 6 nM.

For `CC(C)(C)c1[nH]cnc1/C=c1\[nH]c(=O)/c(=C/c2ccc3c(c2)C(=O)c2ccccc2-3)[nH]c1=O`, which IC50 (HT-29 [9]) is on record?
Its IC50 is 2.8 µM.

For `CC(C)(C)c1[nH]cnc1/C=c1\[nH]c(=O)/c(=C/c2cccc(C(=O)c3ccc(C(F)(F)F)cc3)c2)[nH]c1=O`, which IC50 (HT-29 [2]) is on record?
The IC50 was 147 nM.

Which IC50 (HT-29 [2]) does the source give for `COc1cccc(C(=O)c2cccc(/C=c3\[nH]c(=O)/c(=C/c4nc[nH]c4C(C)(C)C)[nH]c3=O)c2)c1` here?
Its IC50 is 39 nM.

For `CC(C)(C)c1[nH]cnc1/C=c1\[nH]c(=O)/c(=C/c2ccc(C(=O)c3ccccc3)cc2)[nH]c1=O`, which IC50 (HT-29 [2]) is on record?
Its IC50 is 1200 nM.

For `CC(C)(C)c1[nH]cnc1/C=c1\[nH]c(=O)/c(=C/c2cccc(C(=O)c3ccc(F)cc3)c2)[nH]c1=O`, which IC50 [3] is on record?
The IC50 was 900 nM.

What about the IC50 (A549) of the same compound?
Its IC50 is 0.8 nM.

What about the IC50 (HeLa [1]) of the same compound?
Its IC50 is 1.7 nM.

And the Activity (HeLa [4])?
Its Activity is “inactive”.

What about the Activity (HeLa [5]) of the same compound?
Its Activity is “inactive”.

And the Activity (HeLa [6])?
Its Activity is “Active”.

What about the Activity (HeLa [7]) of the same compound?
Its Activity is “Active”.

And the Activity (HeLa [8])?
Its Activity is “Active”.

What about the Kd (tubulin (Sus scrofa)) of the same compound?
The Kd was 72 nM.

What about the IC50 (HT-29 [2]) of the same compound?
Its IC50 is 0.5 nM.

For `CC(C)(C)c1[nH]cnc1/C=c1\[nH]c(=O)/c(=C/c2cccc(C(=O)c3ccc(Cl)cc3)c2)[nH]c1=O`, which IC50 (HT-29 [2]) is on record?
The IC50 was 1.1 nM.

With `COc1ccc(C(=O)c2cccc(/C=c3\[nH]c(=O)/c(=C/c4nc[nH]c4C(C)(C)C)[nH]c3=O)c2)cc1OC` as the compound, how does the IC50 (HT-29 [2]) read?
Its IC50 is 7300 nM.

With `CC(C)(C)c1[nH]cnc1/C=c1\[nH]c(=O)/c(=C/c2cccc(C(O)c3ccccc3)c2)[nH]c1=O` (centres undefined) as the compound, how does the IC50 (HT-29 [2]) read?
The IC50 was 41 nM.

Which IC50 (HT-29 [2]) does the source give for `CC(C)(C)c1[nH]cnc1/C=c1\[nH]c(=O)/c(=C/c2cccc(C(=O)c3cccc(F)c3)c2)[nH]c1=O` here?
The IC50 was 0.6 nM.
